Test system: MT901
Assay: Intratumoral HER3-DC1 in combination with Taxol
Assay type: in vivo, mouse
Conditions: 30 days after tumor cells were transferred
Experimental: Taxol alone group received two injections of taxol. DC alone group received DCs once weekly beginning on day 5. DC+Taxol group received two injections of taxol before beginning DC treatment.
MT901, a mouse TNBC cell line, was injected in Balb/c mice and treatment began once tumors were palpable. HER3-DC1 vaccine was injected intratumorally once a week for six weeks. HER3 immune responses were measured in spleens, lymph nodes, and tumors post-vaccination. […] To investigate how the peptides would perform in the context of a therapeutic treatment of an established cancer, 5×10^5 MT901 cells were delivered to a Balb/c mouse s.c. and 5 days later weekly administration of 1×10^6 HER3 pulsed DC cells began and continued for six weeks (FIG. 8). […] To determine if the therapeutic or preventive effect could be improved in combination with an anti-cancer agent, mice were administered HER3-pulsed DC1 in combination with Taxol.

## CC(=O)O[C@H]1C(=O)[C@@]2(C)[C@H]([C@H](OC(=O)c3ccccc3)[C@]3(O)C[C@H](OC(=O)[C@H](O)[C@@H](NC(=O)c4ccccc4)c4ccccc4)C(C)=C1C3(C)C)[C@]1(OC(C)=O)CO[C@@H]1C[C@@H]2O [taxol, Paclitaxel]
  established tumors: had established tumors

— patent US20220370496A1, “HER3 PULSED DC1 THERAPY” (H. LEE MOFFITT CANCER CENTER AND RESEARCH INSTITUTE, INC., priority 2019, published 2022)
